According to PMC3851289 (Molecular cell, 2013):

Biological target: VprBP (Homo sapiens, UniProt Q9Y4B6)
Assay: in vitro kinase assay with recombinant VprBP and H2A
Assay type: biochemical

Chain of VprBP (Q9Y4B6 whole entry): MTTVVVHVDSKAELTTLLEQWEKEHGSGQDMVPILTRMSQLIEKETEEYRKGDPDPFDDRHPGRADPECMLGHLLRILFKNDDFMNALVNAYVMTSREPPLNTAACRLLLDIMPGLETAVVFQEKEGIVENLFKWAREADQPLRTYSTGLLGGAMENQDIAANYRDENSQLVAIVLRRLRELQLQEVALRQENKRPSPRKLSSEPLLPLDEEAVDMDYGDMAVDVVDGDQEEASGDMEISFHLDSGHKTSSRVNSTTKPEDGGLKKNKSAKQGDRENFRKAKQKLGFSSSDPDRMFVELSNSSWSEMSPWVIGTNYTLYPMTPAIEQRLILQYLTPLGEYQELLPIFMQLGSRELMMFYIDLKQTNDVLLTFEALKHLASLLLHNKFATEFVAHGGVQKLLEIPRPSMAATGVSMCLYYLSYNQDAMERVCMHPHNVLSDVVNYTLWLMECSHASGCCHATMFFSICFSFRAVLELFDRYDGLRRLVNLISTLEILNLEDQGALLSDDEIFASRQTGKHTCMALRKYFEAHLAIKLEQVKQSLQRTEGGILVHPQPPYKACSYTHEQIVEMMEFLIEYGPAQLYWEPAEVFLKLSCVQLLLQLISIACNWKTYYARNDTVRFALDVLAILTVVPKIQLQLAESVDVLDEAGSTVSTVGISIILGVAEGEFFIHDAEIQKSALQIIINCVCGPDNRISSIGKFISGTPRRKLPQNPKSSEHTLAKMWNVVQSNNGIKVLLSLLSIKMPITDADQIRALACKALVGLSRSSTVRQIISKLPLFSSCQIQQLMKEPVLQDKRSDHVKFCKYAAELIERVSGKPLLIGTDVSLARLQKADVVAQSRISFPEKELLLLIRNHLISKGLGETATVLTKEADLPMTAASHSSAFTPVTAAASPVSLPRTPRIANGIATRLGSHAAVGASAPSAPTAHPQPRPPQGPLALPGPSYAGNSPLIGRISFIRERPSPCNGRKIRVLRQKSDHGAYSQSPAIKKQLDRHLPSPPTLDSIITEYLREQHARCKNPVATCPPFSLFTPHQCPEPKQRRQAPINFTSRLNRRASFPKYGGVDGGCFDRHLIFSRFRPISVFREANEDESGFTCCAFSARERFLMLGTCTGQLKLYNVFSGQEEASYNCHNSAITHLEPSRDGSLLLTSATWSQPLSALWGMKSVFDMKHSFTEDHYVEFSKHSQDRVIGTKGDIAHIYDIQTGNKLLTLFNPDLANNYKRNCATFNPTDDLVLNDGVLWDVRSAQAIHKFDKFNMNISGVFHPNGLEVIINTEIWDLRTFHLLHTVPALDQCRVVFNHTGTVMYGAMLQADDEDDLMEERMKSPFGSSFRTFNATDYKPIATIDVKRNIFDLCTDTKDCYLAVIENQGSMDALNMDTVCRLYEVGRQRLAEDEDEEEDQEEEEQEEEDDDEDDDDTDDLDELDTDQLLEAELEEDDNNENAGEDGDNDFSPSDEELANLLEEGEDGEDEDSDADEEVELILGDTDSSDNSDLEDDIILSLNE

## B32B3
  IC50: 600 nM
